Test results published in ChEMBL document CHEMBL3853265 (Medchemcomm, 2016).

What was measured:
[1] = Permeability in RRCK cells; format: ADME, cell-based, Canis lupus familiaris, MDCKII-LE; conditions: dog, MDCK; read-out: permeability
[2] = Octanol-water partition co-efficient, log D of the compound by shake flask method; format: physicochemical
[3] = target: T1, Solute carrier organic anion transporter family member 1B3 (Homo sapiens, UniProt Q9NPD5); assay: Drug uptake assessed as human OATP1B3-mediated drug accumulation by cell-based assay relative to wild type protein; format: ADME
T1 sequence (Q9NPD5 whole entry): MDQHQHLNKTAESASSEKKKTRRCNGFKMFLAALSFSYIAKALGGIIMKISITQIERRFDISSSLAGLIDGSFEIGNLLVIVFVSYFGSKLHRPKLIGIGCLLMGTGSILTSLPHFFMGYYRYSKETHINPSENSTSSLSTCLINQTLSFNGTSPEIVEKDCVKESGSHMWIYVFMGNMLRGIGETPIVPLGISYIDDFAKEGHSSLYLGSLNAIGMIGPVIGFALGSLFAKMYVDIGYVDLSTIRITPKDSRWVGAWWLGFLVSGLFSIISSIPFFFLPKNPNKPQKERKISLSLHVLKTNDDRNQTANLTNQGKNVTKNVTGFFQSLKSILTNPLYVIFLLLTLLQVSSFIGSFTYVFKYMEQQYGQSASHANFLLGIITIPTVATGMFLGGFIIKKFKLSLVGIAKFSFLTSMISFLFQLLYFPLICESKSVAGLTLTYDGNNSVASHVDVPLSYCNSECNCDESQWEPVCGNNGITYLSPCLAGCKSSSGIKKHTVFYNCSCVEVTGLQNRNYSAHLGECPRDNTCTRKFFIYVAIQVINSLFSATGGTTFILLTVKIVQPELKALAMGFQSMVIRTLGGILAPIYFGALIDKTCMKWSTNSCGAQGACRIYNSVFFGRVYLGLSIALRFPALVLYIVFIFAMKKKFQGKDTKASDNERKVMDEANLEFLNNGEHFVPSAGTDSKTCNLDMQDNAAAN

[4] = Renal clearance in dog at 0.363 mg/kg, iv and 0.737 mg/kg, po relative to GFR x fraction unbound; format: ADME, organism-based, Canis lupus familiaris; conditions: in vivo
[5] = Intrinsic clearance in human hepatocytes assessed per 10^6 cells; format: ADME, cell-based, Hepatocyte
[6] = Fraction unbound in rat plasma; format: ADME, cell-free
[7] = Unbound clearance in rat at 1 mg/kg, iv and 3 mg/kg, po; format: ADME, organism-based; conditions: in vivo
[8] = target: T2, Solute carrier family 22 member 6 (Homo sapiens, UniProt Q4U2R8); assay: Inhibition of OAT1 (unknown origin)
T2 sequence (Q4U2R8 whole entry): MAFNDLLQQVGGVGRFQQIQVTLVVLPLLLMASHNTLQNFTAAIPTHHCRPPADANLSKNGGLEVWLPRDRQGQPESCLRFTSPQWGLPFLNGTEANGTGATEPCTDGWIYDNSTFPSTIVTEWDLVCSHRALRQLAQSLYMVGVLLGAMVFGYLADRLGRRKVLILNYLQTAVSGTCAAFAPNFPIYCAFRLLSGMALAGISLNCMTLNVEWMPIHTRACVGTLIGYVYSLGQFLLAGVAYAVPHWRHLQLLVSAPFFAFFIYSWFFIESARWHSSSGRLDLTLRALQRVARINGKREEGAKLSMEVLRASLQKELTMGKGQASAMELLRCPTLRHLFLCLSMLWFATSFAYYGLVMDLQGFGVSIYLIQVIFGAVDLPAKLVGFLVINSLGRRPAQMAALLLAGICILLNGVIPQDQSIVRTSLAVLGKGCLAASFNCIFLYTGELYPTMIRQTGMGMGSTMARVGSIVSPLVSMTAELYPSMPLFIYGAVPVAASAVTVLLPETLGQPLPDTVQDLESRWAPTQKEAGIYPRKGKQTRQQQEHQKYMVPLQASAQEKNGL

[9] = Half life in rat at 1 mg/kg, iv and 3 mg/kg, po; format: ADME, organism-based; conditions: in vivo
[10] = Renal clearance in dog at 1 mg/kg, iv and 3 mg/kg, po relative to GFR x fraction unbound; format: ADME, organism-based, Canis lupus familiaris; conditions: in vivo
[11] = target: T3, Solute carrier organic anion transporter family member 1B1 (Homo sapiens, UniProt Q9Y6L6); assay: Drug uptake assessed as human OATP1B1-mediated drug accumulation by cell-based assay relative to wild type protein; format: ADME
T3 sequence (Q9Y6L6 whole entry): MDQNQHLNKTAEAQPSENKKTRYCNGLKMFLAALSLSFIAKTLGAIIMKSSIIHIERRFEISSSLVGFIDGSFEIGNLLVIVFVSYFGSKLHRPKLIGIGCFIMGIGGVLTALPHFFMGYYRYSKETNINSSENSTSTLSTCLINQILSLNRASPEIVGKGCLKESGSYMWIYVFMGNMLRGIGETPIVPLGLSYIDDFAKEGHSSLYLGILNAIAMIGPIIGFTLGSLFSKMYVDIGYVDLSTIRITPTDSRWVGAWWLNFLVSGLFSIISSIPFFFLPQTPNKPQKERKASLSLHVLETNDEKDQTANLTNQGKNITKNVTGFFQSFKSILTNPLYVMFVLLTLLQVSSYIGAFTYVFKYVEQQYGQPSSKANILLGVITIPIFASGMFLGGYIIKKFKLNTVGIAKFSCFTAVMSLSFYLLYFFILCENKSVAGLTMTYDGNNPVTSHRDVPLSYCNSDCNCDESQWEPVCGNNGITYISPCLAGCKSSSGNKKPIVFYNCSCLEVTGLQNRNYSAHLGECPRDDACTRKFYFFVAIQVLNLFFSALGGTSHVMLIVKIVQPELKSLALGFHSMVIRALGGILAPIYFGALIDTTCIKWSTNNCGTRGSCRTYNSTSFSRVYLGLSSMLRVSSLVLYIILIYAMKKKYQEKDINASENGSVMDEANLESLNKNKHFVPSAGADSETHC

[12] = target: Voltage-gated inwardly rectifying potassium channel KCNH2 (Homo sapiens, UniProt Q12809); assay: Inhibition of human ERG by patch clamp method
Voltage-gated inwardly rectifying potassium channel KCNH2, sequence (Q12809 whole entry): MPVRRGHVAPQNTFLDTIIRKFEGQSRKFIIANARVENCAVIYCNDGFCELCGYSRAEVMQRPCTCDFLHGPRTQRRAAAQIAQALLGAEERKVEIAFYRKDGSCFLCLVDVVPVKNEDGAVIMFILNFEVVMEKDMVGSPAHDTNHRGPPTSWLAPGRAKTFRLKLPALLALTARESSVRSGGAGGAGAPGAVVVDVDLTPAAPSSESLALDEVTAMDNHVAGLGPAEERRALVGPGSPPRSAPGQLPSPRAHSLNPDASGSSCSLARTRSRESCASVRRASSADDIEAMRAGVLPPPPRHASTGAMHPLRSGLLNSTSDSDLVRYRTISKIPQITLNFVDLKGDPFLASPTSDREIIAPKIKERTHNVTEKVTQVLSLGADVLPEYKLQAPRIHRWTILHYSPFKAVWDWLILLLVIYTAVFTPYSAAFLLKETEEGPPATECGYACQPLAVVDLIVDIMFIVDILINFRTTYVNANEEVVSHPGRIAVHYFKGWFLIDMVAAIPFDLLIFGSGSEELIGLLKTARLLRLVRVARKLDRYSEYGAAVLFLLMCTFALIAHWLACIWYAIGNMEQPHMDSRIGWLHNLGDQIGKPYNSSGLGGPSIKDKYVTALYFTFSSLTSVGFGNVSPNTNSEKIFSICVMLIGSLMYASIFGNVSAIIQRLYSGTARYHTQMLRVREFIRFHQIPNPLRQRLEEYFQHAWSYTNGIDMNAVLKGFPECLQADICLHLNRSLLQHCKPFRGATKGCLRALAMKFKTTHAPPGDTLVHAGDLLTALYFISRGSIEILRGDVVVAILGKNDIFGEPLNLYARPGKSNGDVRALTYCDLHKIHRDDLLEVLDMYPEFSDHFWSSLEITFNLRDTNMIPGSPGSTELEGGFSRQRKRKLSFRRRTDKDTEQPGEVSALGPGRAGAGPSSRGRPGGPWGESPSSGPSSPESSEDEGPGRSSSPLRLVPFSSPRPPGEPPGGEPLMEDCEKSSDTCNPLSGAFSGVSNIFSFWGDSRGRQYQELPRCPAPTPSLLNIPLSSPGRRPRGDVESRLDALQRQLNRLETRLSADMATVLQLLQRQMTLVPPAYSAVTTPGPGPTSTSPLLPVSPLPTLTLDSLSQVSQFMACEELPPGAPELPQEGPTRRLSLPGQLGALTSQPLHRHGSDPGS

[13] = target: Sodium channel protein type 5 subunit alpha (Homo sapiens, UniProt Q14524); assay: Inhibition of human NaV1.5 expressed in HEK293 cells by patch clamp method; format: cell-based
Sodium channel protein type 5 subunit alpha, sequence (Q14524 whole entry): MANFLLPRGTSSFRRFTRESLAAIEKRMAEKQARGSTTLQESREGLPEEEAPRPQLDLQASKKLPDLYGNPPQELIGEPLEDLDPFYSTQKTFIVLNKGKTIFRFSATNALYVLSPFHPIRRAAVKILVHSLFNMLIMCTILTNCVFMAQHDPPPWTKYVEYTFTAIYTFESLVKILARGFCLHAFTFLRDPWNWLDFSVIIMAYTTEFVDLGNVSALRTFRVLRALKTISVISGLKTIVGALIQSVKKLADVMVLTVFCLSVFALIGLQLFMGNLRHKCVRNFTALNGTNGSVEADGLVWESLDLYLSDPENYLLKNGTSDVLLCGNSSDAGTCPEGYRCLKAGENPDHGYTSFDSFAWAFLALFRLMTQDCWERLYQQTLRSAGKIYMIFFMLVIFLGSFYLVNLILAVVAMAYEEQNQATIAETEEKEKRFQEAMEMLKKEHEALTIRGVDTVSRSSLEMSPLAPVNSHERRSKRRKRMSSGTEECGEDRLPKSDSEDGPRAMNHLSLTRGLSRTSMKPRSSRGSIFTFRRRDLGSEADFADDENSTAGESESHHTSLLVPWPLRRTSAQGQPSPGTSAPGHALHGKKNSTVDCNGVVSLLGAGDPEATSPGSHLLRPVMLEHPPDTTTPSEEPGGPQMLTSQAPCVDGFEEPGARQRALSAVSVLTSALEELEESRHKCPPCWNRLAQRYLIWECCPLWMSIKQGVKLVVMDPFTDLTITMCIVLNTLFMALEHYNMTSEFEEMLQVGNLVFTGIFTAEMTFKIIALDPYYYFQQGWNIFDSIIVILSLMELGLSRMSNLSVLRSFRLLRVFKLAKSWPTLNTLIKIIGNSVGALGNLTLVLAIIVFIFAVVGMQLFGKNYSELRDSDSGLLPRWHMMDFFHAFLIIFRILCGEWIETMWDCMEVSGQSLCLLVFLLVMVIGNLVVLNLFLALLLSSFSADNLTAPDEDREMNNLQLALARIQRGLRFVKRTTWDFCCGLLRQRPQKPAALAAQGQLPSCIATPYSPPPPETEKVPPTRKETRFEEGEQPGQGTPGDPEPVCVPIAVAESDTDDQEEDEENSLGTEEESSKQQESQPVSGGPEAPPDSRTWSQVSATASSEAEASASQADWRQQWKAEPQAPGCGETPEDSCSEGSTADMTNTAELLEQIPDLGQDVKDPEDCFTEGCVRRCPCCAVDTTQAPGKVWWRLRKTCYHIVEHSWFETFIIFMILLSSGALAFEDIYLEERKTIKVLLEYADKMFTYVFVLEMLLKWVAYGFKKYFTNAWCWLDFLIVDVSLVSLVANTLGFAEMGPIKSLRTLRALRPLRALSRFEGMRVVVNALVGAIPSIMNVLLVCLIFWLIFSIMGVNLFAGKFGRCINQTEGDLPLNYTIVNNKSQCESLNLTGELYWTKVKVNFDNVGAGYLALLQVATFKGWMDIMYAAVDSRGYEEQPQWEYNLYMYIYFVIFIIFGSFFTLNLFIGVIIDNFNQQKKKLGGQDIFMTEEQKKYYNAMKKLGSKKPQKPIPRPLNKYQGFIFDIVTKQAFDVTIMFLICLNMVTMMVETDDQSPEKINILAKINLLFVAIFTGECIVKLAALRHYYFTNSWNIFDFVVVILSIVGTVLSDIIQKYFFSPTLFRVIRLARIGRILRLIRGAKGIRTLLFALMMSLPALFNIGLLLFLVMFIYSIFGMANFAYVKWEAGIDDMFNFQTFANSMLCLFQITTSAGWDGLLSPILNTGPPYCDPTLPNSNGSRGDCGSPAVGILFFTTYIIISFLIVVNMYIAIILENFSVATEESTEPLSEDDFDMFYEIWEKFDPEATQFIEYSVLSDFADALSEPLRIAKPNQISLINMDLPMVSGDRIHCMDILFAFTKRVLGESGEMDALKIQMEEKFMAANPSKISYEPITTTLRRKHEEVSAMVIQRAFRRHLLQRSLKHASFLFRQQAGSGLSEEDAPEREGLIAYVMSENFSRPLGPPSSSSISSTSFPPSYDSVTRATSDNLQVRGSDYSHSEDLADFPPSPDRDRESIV

[14] = Plasma clearance in rat at 1 mg/kg, iv and 3 mg/kg, po; format: ADME, organism-based
[15] = Intrinsic clearance in dog liver microsomes; format: ADME, Canis lupus familiaris; conditions: read-out: CLH
[16] = Intrinsic clearance in rat hepatocytes assessed per 10^6 cells; format: ADME, cell-based, Hepatocyte
[17] = Mutagenicity in […] by Ames test in absence of […]; format: toxicity
[18] = Intrinsic clearance in rat liver microsomes; format: ADME; conditions: read-out: CLH
[19] = Oral bioavailability in rat at 3 mg/kg; format: ADME, organism-based; conditions: in vivo

Compound	Papp [1] [×10⁻⁶ cm/s]	logD [2]	fold change (FC) [3]	CL [4] [%]	CLH [5] [µL/min/1e6 cells]	fraction unbound [6]	CL free [7] [mL/min/kg]	IC50 [8] [µM]	half-life [9] [h]	CL [10] [%]	fold change (FC) [11]	IC50 [12] [µM]	IC50 [13] [µM]	clearance [14] [mL/min/kg]	microsomal CLint [15] [µL/min/mg]	CLH [16] [µL/min/1e6 cells]	Activity [17]	microsomal CLint [18] [µL/min/mg]	bioavailability [19] [%]
O=S(=O)(Nc1ccc(C(F)(F)F)nc1)c1ccccc1C(F)(F)F	27	1.4	0.582	< 2	< 6	0.0045	41	12.3	27.3	< 2	0.902	> 100	> 100	0.18	< 18	< 6	Non-Toxic	< 14	98
O=S(=O)(Nc1cncc(C(F)(F)F)c1)c1ccccc1C(F)(F)F	21	1.5	0.702	< 2	6	0.0017	324	9.3	3.3	< 2	0.573	> 100	> 30	0.55	< 18	7	Non-Toxic	35	150
